Experiments:
[1] = tested on: male rat (Sprague Dawley Crl:SD); assay: In vivo MRI imaging of 2 and 6, T1-weighted scans; settings: for T1-weighted MRI signal intensity, bladder: baseline (−10 min) 5085; for T1-weighted MRI signal intensity, lean muscle: baseline (−10 min) 5640; for T1-weighted MRI signal intensity, liver: baseline (−10 min) 7276; for T1-weighted MRI signal intensity, renal medulla: baseline (−10 min) 7725; for T1-weighted MRI signal intensity, renal cortex: baseline (−10 min) 8005; for T1-weighted MRI signal intensity, fat: baseline (−10 min) 14509
Experimental: (§1) Compound 1 (aq., 12.5 mM) was injected intravenously into 2 male rats (Sprague Dawley Crl:SD, 312-338 g) at a dosage of 0.02 mmol/kg following anaesthesia with 5% isoflurane. Compound 2 (aq., 6.25 mM) was injected intravenously into 1 male rat (Sprague Dawley Crl:SD, 349 g) at a dosage of 0.01 mmol/kg following anaesthesia with 5% isoflurane. Compound 6 (aq., 6.25 mM) was injected intravenously into 1 male rat (Sprague Dawley Crl:SD, 341 g) at a dosage of 0.01 mmol/kg following anaesthesia with 5% isoflurane. Anesthesia was maintained at 2-2.5% isoflurane through a nose cone for the duration of the scans. Fast-spin-echo images were collected for 45 mins. immediately post-injection. For compound 1, the DT1-weighted RARE (Rapid Acquisition Relaxation Enhancement) scans were acquired with an echo time of 10 ms, and a repetition time=respiratory cycle duration (˜1100 ms). Both T1- and T2-weighted scans were collected on compounds 2 and 6.
(§2) The in vivo contrast potential of compounds 1, 2 and 6 were studied via the collection of fast-spin-echo images for 30-45 minutes immediately following injection of an aqueous solution of each complex. The dosage chosen for 1 was 0.02 mmol/kg (c=[…]) while the dosage chosen for 2 and 6 was 0.01 mmol/kg (c=6.25 mM). Predominantly T1-weighted scans with some T2-weighting were performed on two rats injected with 1.
(§3) Both T1- and T2-weighted scans were performed on two rats injected with 2 and its dimeric analogue 6.

[2] = tested on: male rat (Sprague Dawley Crl:SD); assay: In vivo MRI imaging of 2 and 6, T2-weighted scans; settings: for T2-weighted MRI signal intensity, liver: baseline (−10 min) 965; for T2-weighted MRI signal intensity, lean muscle: baseline (−10 min) 2673; for T2-weighted MRI signal intensity, renal cortex: baseline (−10 min) 4759; for T2-weighted MRI signal intensity, renal medulla: baseline (−10 min) 6454; for T2-weighted MRI signal intensity, bladder: baseline (−10 min) 12921; for T2-weighted MRI signal intensity, fat: baseline (−10 min) 14834
Experimental: as §1, §2, §3

[3] = 1 min after injection of 2, 0.01 mmol/kg iv
[4] = 15 min after injection of 2, 0.01 mmol/kg iv
[5] = 30 min after injection of 2, 0.01 mmol/kg iv
[6] = 45 min after injection of 2, 0.01 mmol/kg iv
[7] = injection of 2, 0.01 mmol/kg iv, first 45 min
[8] = 8 min after injection of 2, 0.01 mmol/kg iv
[9] = 22 min after injection of 2, 0.01 mmol/kg iv
[10] = 37 min after injection of 2, 0.01 mmol/kg iv
[11] = injection of 2, 0.01 mmol/kg iv, first 40 min

## CC1=NCCOCCOCCN=C(C)c2cccc1n2.O.O.[Cl-].[Cl-].[Mn+2] [Compound 2, [MnL2Cl2].2H2O]
[1]; 0.01 mmol/kg iv
  excretion (summary): rapid excretion
[1]; [3]
  T1-weighted MRI signal intensity, bladder: 5155 arbitrary units of voxel intensity
  T1-weighted MRI signal intensity, lean muscle: 5841 arbitrary units of voxel intensity
  T1-weighted MRI signal intensity, liver: 7568 arbitrary units of voxel intensity
  T1-weighted MRI signal intensity, renal medulla: 9169 arbitrary units of voxel intensity
  T1-weighted MRI signal intensity, renal cortex: 9368 arbitrary units of voxel intensity
  T1-weighted MRI signal intensity, fat: 15671 arbitrary units of voxel intensity
[1]; [4]
  T1-weighted MRI signal intensity, bladder: 16182 arbitrary units of voxel intensity
  T1-weighted MRI signal intensity, lean muscle: 5696 arbitrary units of voxel intensity
  T1-weighted MRI signal intensity, liver: 7385 arbitrary units of voxel intensity
  T1-weighted MRI signal intensity, renal medulla: 8472 arbitrary units of voxel intensity
  T1-weighted MRI signal intensity, renal cortex: 10144 arbitrary units of voxel intensity
  T1-weighted MRI signal intensity, fat: 15845 arbitrary units of voxel intensity
[1]; [5]
  T1-weighted MRI signal intensity, bladder: 11996 arbitrary units of voxel intensity
  T1-weighted MRI signal intensity, lean muscle: 5569 arbitrary units of voxel intensity
  T1-weighted MRI signal intensity, liver: 7812 arbitrary units of voxel intensity
  T1-weighted MRI signal intensity, renal medulla: 7969 arbitrary units of voxel intensity
  T1-weighted MRI signal intensity, renal cortex: 10702 arbitrary units of voxel intensity
  T1-weighted MRI signal intensity, fat: 15745 arbitrary units of voxel intensity
[1]; [6]
  T1-weighted MRI signal intensity, bladder: 13104 arbitrary units of voxel intensity
  T1-weighted MRI signal intensity, lean muscle: 5574 arbitrary units of voxel intensity
  T1-weighted MRI signal intensity, liver: 7683 arbitrary units of voxel intensity
  T1-weighted MRI signal intensity, renal medulla: 8615 arbitrary units of voxel intensity
  T1-weighted MRI signal intensity, renal cortex: 11485 arbitrary units of voxel intensity
  T1-weighted MRI signal intensity, fat: 15860 arbitrary units of voxel intensity
[1]; [7]
  Max. intensity change, T1-weighted, bladder: 218%
  Max. intensity change, T1-weighted, fat: 9%
  Max. intensity change, T1-weighted, lean muscle: 3%
  Max. intensity change, T1-weighted, liver: 7%
  Max. intensity change, T1-weighted, renal cortex: 43%
  Max. intensity change, T1-weighted, renal medulla: 19%
[1]; renal cortex, liver and lean muscle, 0.01 mmol/kg iv
  effect on T1-weighted signal intensity: causes an enhancement in the renal cortex and has negligible effect on liver and lean muscle tissue
[2]; [8]
  T2-weighted MRI signal intensity, liver: 788 arbitrary units of voxel intensity
  T2-weighted MRI signal intensity, lean muscle: 2386 arbitrary units of voxel intensity
  T2-weighted MRI signal intensity, renal cortex: 3367 arbitrary units of voxel intensity
  T2-weighted MRI signal intensity, renal medulla: 5342 arbitrary units of voxel intensity
  T2-weighted MRI signal intensity, bladder: 7977 arbitrary units of voxel intensity
  T2-weighted MRI signal intensity, fat: 14550 arbitrary units of voxel intensity
[2]; [9]
  T2-weighted MRI signal intensity, liver: 577 arbitrary units of voxel intensity
  T2-weighted MRI signal intensity, lean muscle: 2451 arbitrary units of voxel intensity
  T2-weighted MRI signal intensity, renal cortex: 3307 arbitrary units of voxel intensity
  T2-weighted MRI signal intensity, renal medulla: 5306 arbitrary units of voxel intensity
  T2-weighted MRI signal intensity, bladder: 667 arbitrary units of voxel intensity
  T2-weighted MRI signal intensity, fat: 12923 arbitrary units of voxel intensity
[2]; [10]
  T2-weighted MRI signal intensity, liver: 400 arbitrary units of voxel intensity
  T2-weighted MRI signal intensity, lean muscle: 2377 arbitrary units of voxel intensity
  T2-weighted MRI signal intensity, renal cortex: 3034 arbitrary units of voxel intensity
  T2-weighted MRI signal intensity, renal medulla: 4215 arbitrary units of voxel intensity
  T2-weighted MRI signal intensity, bladder: 512 arbitrary units of voxel intensity
  T2-weighted MRI signal intensity, fat: 13440 arbitrary units of voxel intensity
[2]; [11]
  Max. intensity change, T2-weighted, bladder: −96%
  Max. intensity change, T2-weighted, fat: −13%
  Max. intensity change, T2-weighted, lean muscle: −11%
  Max. intensity change, T2-weighted, liver: −59%
  Max. intensity change, T2-weighted, renal cortex: −36%
  Max. intensity change, T2-weighted, renal medulla: −35%

Reference: US10377783B2, “Methods and compounds for enhancing contrast in magnetic resonance imaging (MRI)” (priority 2015, dated 2019)
